Patent US20230106032A1, “IMIDAZOTRIAZINES ACTING ON CANCER VIA INHIBITION OF CDK12” (Bayer Aktiengesellschaft, priority 2020, published 2023)

How the values were obtained:
Assay type in all cases: cell-based
[1] = molecular target: T1, CDK12 (Homo sapiens, UniProt Q9NYV4); test: CDK12 nuclear protein level: immunofluorescence/high content analysis in CAL-120 cells; settings: for DC50: CAL-120 cells, 24 h, nuclear CDK12 staining, read-out: CDK12 degradation IF DC50-[mol/l] (median); for (IC50 CDK12 high ATP) to (Degradation DC50 CDK12) ratio: IC50 CDK12 hATP (Table 2) divided by DC50 CDK12 IF (Table 8)
T1 construct: endogenous in cells; host or cells: CAL-120 human breast cancer cells (DSMZ ACC 459)
Method: In the context of the present invention, the term “DC50 CDK12” refers to the DC50 values obtained according to the assay described in this section (6) herein below, i.e. the DC50 values for the degradation of CDK12.
CAL-120 human breast cancer cells (DSMZ ACC 459) are seeded in 1536-well microtiter plates (800 cells per well) containing 50 nanoL of compounds in Dose-Response. Control wells received DMSO or Reference Example 1. Plates are then incubated for 24 h at 37° C. in an humidified incubator and fixed with 4% PFA for 10 min. Then immunofluorescence (IF) against CDK12 (CellSignalling CDK12 Antibody #11973, rabbit, 1:100 dilution) is performed using standard IF protocols. Cells are then stained with Hoechst 33342 (Life Technologies, H-1399, 0.1 microg/ml) and imaged on an automated confocal microscopy system (e.g. Perkin Elmer Opera Phenix). Nuclear and cytoplasmic intensity as well as the nuclear/cytoplasmic intensity ratio is determined by automated image analysis using custom generated scripts (MetaXpress). Data is then transferred to Genedata Screener software, normalized to DMSO and control and DC50 values (degrading concentration to achieve 50% reduction of nuclear CDK12 staining intensity relative to controls) are reported.

[2] = system: BRCA1 mRNA expression in MDA-MB-231 cells; test: qRT-PCR assay: inhibition of BRCA1 mRNA expression in MDA-MB-231 cells; settings: Homo sapiens, 24 h exposure, normalised to GAPDH, read-out: RTqPCR-MDA-MB-231 IC50 [mol/l] BRCA1 (median)
Method: Tissue cultured human MDA-MB-231 human breast cancer cells were plated in 500 microL per well at 200,000 cells/well in a 24 well microtiter plate. After 24 h, the cells were exposed continuously for 24 h to test substances (substances were added with Tecan HP D300 Dispenser). RNA was prepared using Qiagen RNeasy MiniKit (#74106), RNA was quantified using a NanoDrop Equipment, and 600 nano gamms of RNA was converted to cDNA using a SuperScript VILO kit (Thermofisher #11755050) followed by qPCR amplification. BRCA1 and ATR gene expression was measured by RT-qPCR and normalised to GAPDH housekeeping gene expression. qPCR primer sets have been purchased from Thermo Fisher Scientific/Applied Biosystems: BRCA1, #Hs 01556193; ATR, #Hs 00992123; GAPDH, #Hs 03929097.

[3] = molecular target: T1, CDK12; test: CDK12 protein level in CAL-120 cells (Protein Simple); settings: 18 h, CDK12/HSP90 peak area ratio, read-out: CDK12 protein level in CAL-120 breast ca cells DC50-[mol/l] (median)
Method: CAL-120 human breast cancer cells (DSMZ ACC 459) were seeded at 300,000 cells/well in 6-well plates containing 2 mL of growth medium (DMEM, 10% FCS, glutamine) and incubated for 24 h at 37° C. in an humidified incubator. Test compounds were added at various concentrations, control wells received solvent (DMSO), and the plates were incubated for another 18 h at 37° C. Cells were washed 2 times with PBS and lysed in 75 microL lysis buffer (MSD-Puffer (MSD, #R^60TX-2), +1% SDS+PhosSTOP (Roche #04906837001)+ complete mini (Roche #04693159001)) by scraping. The lysates were pushed 2 times through Qiashedders followed by centrifugation at 14,000 rpm for 30-50 sec. The supernatant was stored at −20° C. […] CDK12 and HSP90 (loading control) were detected using anti-human CDK12 antibody (Cell Signaling Technologies (CST) #11793) at 1:25 dilution and anti-human HSP90 antibody (CST #4877) at 1:5,000 dilution. CDK12 and HSP90 peak areas were determined using Protein Simple Compass software. Ratio of CDK12/HSP90 peak areas were calculated for each sample, and DC50 values (degrading concentration to achieve 50% reduction relative to vehicle treated control) were determined by means of a 4 parameter fit.

T1 sequence (Q9NYV4 whole entry): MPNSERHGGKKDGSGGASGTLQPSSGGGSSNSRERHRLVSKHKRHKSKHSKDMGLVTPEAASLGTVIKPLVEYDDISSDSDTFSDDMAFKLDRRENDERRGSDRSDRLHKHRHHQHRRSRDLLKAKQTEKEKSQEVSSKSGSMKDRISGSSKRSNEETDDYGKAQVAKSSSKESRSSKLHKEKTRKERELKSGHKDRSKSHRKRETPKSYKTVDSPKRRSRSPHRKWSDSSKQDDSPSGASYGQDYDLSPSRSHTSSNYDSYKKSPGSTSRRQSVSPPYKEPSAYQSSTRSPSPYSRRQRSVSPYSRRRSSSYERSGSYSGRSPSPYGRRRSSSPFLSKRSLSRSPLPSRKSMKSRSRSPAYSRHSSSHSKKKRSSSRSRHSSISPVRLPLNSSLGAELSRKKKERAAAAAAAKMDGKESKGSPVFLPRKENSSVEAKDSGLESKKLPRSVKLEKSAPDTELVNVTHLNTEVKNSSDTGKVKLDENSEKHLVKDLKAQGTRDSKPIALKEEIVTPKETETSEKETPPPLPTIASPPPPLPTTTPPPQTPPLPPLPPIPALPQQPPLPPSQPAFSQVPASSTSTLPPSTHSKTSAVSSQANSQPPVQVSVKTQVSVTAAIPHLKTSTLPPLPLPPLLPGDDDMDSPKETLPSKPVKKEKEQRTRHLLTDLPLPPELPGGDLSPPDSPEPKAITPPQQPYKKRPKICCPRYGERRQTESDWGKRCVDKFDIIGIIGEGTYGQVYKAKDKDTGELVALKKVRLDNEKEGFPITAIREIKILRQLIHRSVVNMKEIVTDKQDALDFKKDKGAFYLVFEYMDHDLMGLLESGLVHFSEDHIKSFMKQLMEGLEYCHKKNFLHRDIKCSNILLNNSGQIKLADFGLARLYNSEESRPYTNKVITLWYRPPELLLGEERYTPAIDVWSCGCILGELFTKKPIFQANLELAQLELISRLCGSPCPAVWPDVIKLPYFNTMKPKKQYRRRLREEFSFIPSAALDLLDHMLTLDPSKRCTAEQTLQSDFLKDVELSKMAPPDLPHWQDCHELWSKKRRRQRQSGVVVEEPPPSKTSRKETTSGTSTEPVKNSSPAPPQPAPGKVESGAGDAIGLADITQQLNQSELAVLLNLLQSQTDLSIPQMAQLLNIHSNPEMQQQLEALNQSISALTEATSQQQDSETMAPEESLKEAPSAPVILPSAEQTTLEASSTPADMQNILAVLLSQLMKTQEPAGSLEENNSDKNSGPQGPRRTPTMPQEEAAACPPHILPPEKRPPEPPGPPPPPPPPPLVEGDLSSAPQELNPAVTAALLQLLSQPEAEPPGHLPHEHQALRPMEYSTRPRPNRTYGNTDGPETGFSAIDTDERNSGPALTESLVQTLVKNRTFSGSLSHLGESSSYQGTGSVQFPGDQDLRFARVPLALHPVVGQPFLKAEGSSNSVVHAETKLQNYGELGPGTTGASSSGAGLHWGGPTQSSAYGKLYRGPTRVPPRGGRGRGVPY
T1 sequence (O75909 whole entry partner): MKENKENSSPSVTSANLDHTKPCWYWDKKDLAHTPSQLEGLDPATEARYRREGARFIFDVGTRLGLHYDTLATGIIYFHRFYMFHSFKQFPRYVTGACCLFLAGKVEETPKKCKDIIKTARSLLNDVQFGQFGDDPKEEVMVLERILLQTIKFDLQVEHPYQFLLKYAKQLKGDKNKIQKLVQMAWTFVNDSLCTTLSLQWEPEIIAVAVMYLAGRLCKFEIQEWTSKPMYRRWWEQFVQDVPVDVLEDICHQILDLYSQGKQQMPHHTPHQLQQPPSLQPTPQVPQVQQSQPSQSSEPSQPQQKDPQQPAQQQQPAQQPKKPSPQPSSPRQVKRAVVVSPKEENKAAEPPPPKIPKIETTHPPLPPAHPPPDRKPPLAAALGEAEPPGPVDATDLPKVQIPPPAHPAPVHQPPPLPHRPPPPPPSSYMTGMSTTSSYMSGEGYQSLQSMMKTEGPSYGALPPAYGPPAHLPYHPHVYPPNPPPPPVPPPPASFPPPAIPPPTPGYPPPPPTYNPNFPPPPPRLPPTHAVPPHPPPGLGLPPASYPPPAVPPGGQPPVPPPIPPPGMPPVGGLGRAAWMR

SMILES	DC50 [1] [nM]	(IC50 CDK12 high ATP) to (Degradation DC50 CDK12) ratio [1]	IC50 [2] [nM]	DC50 [3] [nM]
C[C@@H]1CN(c2nc(NCc3nc4ccccc4[nH]3)c3ncc(Br)n3n2)C[C@H](C)N1 [Example 9, N-[(1H-benzimidazol-2-yl)methyl]-7-bromo-2-[rel-(3R,5S)-3,5-dimethylpiperazin-1-yl]imidazo[2,1-f][1,2,4]triazin-4-amine]	0.575	8519	3.52	–
Fc1ccc2[nH]c(CNc3nc(N4CCOCC4)nn4c(Br)cnc34)nc2c1 [Example 20, 7-bromo-N-[(5-fluoro-1H-benzimidazol-2-yl)methyl]-2-(morpholin-4-yl)imidazo[2,1-f][1,2,4]triazin-4-amine]	0.842	4106	3.54	–
COc1cccc2[nH]c(CNc3nc(N4CCN(C)CC4)nn4c(Br)cnc34)nc12.O=CO [Example 16, 7-bromo-N-[(4-methoxy-1H-benzimidazol-2-yl)methyl]-2-(4-methylpiperazin-1-yl)imidazo[2,1-f][1,2,4]triazin-4-amine Formate (1/1)]	1.32	4779	5.59	–
Brc1cnc2c(NCc3nc4ccccc4[nH]3)nc(N3CCOCC3)nn12 [Example 1, N-[(1H-benzimidazol-2-yl)methyl]-7-bromo-2-(morpholin-4-yl)imidazo[2,1-f][1,2,4]triazin-4-amine]	6.8	751	10	< 3
N#Cc1cnc2c(NCc3nc4ccccc4[nH]3)nc(N3CCOCC3)nn12 [Example 2, 4-{[(1H-benzimidazol-2-yl)methyl]amino}-2-(morpholin-4-yl)imidazo[2,1-f][1,2,4]triazine-7-carbonitrile]	4.83	1444	11.1	5.81
C[C@@H]1CN(c2nc(NCc3nc4ccccc4[nH]3)c3ncc(C(F)(F)F)n3n2)C[C@H](C)N1.O=CO [Example 24, N-[(1H-benzimidazol-2-yl)methyl]-2-[rel-(3R,5S)-3,5-dimethylpiperazin-1-yl]-7-(trifluoromethyl)imidazo[2,1-f][1,2,4]triazin-4-amine Formate (1/1)]	0.274	2691	1.1	–
CN1CCN(c2nc(NCc3nc4c(F)c(F)ccc4[nH]3)c3ncc(C(F)(F)F)n3n2)CC1 [Example 28, N-[(4,5-difluoro-1H-benzimidazol-2-yl)methyl]-2-(4-methylpiperazin-1-yl)-7-(trifluoromethyl)imidazo[2,1-f][1,2,4]triazin-4-amine]	0.58	2887	0.242	–
CN(CC(C)(C)O)c1nc(NCc2nc3ccccc3[nH]2)c2ncc(C(F)(F)F)n2n1 [Example 30, 1-[{4-[(1H-benzimidazol-2-ylmethyl)amino]-7-(trifluoromethyl)imidazo[2,1-f][1,2,4]triazin-2-yl}(methyl)amino]-2-methylpropan-2-ol]	13.8	12	7.23	–
